The subject of assay [1] is DA NPCs. Type of assay: cell-based. An excerpt: FGF8 and SHH are not sufficient for expanding DA NPCs: To determine if and how the DA NPCs can be expanded, a CKK8-based assay for quantifying cell numbers was first established. This assay was based on the absorbance readout from a plate reader to estimate the total cell number by monitoring mitochondrial activity, which was used for primary screening/testing for candidate molecules and validating the hits (FIG. 2A).
The optimal seeding density was first determined by plating increasing numbers of DA NPCs to each well. […] The absorbance reached a plateau when the seeding density was beyond 120,000 cell/well (FIG. 2B), and 20,000 cells/well were used for subsequent assays. Using this optimal seeding density (20,000/well), well-to-well and plate-to-plate variation (FIG. 2C) was examined. There were no obvious well-to-well and plate-to-plate variations (FIG. 2C).
Chemical screening identifies an additional compound that expands DA NPCs: The chemical screening platform was set up using FGF8+SHH as a basal condition, FGF8+SHH+DMSO as a control, and FGF8+SHH+1 as the screening mode. With the standardized screening platform (FIG. 3A), 1,200 small molecules (Tocris Total) were screened and the top 5 candidate compounds that increased the absorbance by >2 folds over the median absorbance (FIG. 3B) were identified. […] induced a 5-fold expansion on top of FGF8+SHH (FIG. 3D). We referred to it as the “FSW” cocktail.
Generation and expansion of DA NPCs: DA NPCs were generated as previously described, in particular FGF8b was added from Day 9 (Chen et al., 2016; Xi et al., 2012) (FIG. 1A). The generated DA NPCs were passaged at 10^6 cells/well on a MATRIGEL™ (1:30; PBS diluted and store in 4° C. for use in 2 weeks) coated 6-well plate as the first passage. After overnight, incubation, the medium was switched to the FSCW cocktail in the expansion medium. FSCW cocktail contained FGF8b (50 ng/ml; Peprotech), SHH (25 ng/ml; Peprotech), CHIR (0.6 μM; Tocris) and WNT-C59 (0.5 μM: Tocris). The expansion medium consisted of DF12 basal medium (ThermoFisher), B27 (100×; ThermoFisher), Glutamax (100×; ThermoFisher) and NEAA (100×; ThermoFisher). The cells were passaged every 5 days at the ratio of 1:3. To digest the cells, the cultures were incubated in PBS-diluted EDTA (1:100; Thermo) at 37° C. for 5 minutes before lifting the cells by adding 2 ml DF12 basal medium using cell lifter (Coring) and collecting the cells into a centrifuge tube. Following centrifugation at 1000 rpm for 2 minutes and removal of the supernatant, the cells were resuspended in the expansion medium with FSCW cocktail and seeded onto the coated plates as described above. Y27632 (10 uM; Tocris) was added overnight to improve cell survival.

The subject of assay [2] is DA NPCs. The experiment in a line: DA NPC identity by immunostaining of DA marker co-expression. Type of assay: cell-based, human. The procedure: Immunostaining and Quantification: Cells on coverslips/wells were rinsed with PBS and fixed in 4% paraformaldehyde for 20 minutes. After rinsing with PBS twice, cells were treated with 0.3% Triton for 10 min followed by 10% donkey serum for 1 hour before incubating with primary antibodies overnight at 4° C. Cells were then incubated for 1 hour at room temperature with fluorescently-conjugated secondary antibodies (Life Technologies). The nuclei were stained with Hoechst (Ho) (Sigma-Aldrich). Images were taken with a Nikon A1R-Si laser-scanning confocal microscope (Nikon, Tokyo, Japan). The primary antibodies used include the followings: Goat anti-OTX2 (1:1000, R&D), Rabbit anti-LMX1A (1:500, Abcam), […], Goat anti-FOXA2 (1:500, Santa Cruz), Mouse anti-EN1 (1:200, 4G11-C, DSHB), Rat anti-Corin (1:100, R&D Systems), Rabbit anti-TH (1:500, Pel-Freez Biologicals), Mouse anti-TUJ1 (1:500, Santa Cruz Biotechnology), Mouse anti-MAP2 (1:200, Sigma-Aldrich), Rabbit anti-GIRK2 (1:80, Alomone Labs), Rabbit anti-SOX6 (1:1000, Sigma-Aldrich), Mouse anti-Stem121 (1:500, Clonetech). For quantifying DA NPC populations, cells were counted among the total Hoechst labeled nuclei. Three independent cultures (n=3) were analyzed.

The mark [3] stands for this setting: FGF2 alone, 10 to 200 ng/ml, one passage in 5 days.

Where two headings read alike, the source gives them in different places.

`Cc1c[nH]c(-c2cnc(NCCNc3ccc(C#N)cn3)nc2-c2ccc(Cl)cc2Cl)n1` [CHIR, CHIR99021]: the “expansion of DA NPCs” value in the assay on DA NPCs [1] (CHIR alone, range of doses) was “expanded the DA NPCs”; in the assay on DA NPCs [1] (CHIR at a low dose (0.6 μM)) it was “expanded the DA NPCs”. In addition, the “dose window in which DA NPC identity (co-expression of LMX1A and OTX2) was retained” value in the assay with DA NPCs [2] (CHIR alone) was 0.6 µM. For the same compound, the DA identity entry with DA NPCs [2] (CHIR alone, concentrations lower or higher than 0.6 μM) is reported as “loss of DA identity”. The “cellular identity of DA NPCs” value in the assay on DA NPCs [2] (CHIR at a low dose (0.6 μM)) is reported as “did not alter their cellular identity”.

Regarding `Cc1cc(-c2ccc(CC(=O)Nc3ccc(-c4cccnc4)cc3)cc2)ccn1` [WNT-C59], the “expansion on top of FGF8+SHH” value with DA NPCs [1] (WNT-C59 "At 2" (unit not given), FSW cocktail) is 5 fold. Besides, the “concentration of maximum effect in the cocktail” value with DA NPCs [1] (WNT-C59 titration in FSCW cocktail) worked out at 0.5 µM. The “DA identity after induced expansion (co-expression of LMX1A and OTX2)” value with DA NPCs [2] (on top of FGF8+SHH, 1 passage, 5 days, ratio 1:3) is reported as “maintained DA identity”.

For the compound “FGF2: growth factor reported for expanding pan-NPCs or specified NPCs”, in the assay on DA NPCs [1] (setting [3]), the cell proliferation entry is reported as “induced dramatic cell proliferation”. For the same compound, in the assay on DA NPCs [2] (setting [3]), the “DA NPC identity (co-expression of LMX1A and OTX2)” value is “loss of co-expression of LMX1A and OTX2”.

(Values after US20210222123A1, “IN VITRO EXPANSION OF DOPAMINERGIC SUBTYPE NEURONAL PROGENITORS DERIVED FROM PLURIPOTENT STEM CELLS” (Wisconsin Alumni Research Foundation, priority 2019, published 2021).)
